What all share (format): biochemical
One test has as its target Pim-3 (Homo sapiens (Human), UniProt Q86V86). As to the kind of experiment: Pim-3 kinase assay. To be noted: 1 mM ATP; read-out: PIM3 IC50. As for the experimental part: (§1) Pim-1 and Pim-3 kinase assays—20 μL reactions were run in white 384 well polystyrene plates dotted with 0.8 μL compound/DMSO in the assay buffer (50 mM Tris, pH 7.5, 0.01% Tween-20, 5 mM mgCl2, 0.01% BSA, 5 mM DTT), containing 0.05 μM Biotin-labeled BAD peptide substrate (AnaSpec 62269), 1 mM ATP, and 2.5 pM (Pim-1, Invitrogen PV3503) or 1.25 pM (Pim-3, Millipore 14-738) enzyme for 1 h at 25° C. Reactions were stopped by addition of 10 μL STOP Buffer (150 mM Tris, pH=7.5, 150 mM NaCl, 75 mM EDTA, 0.01% Tween-20, 0.3% BSA,) supplemented with Phospho-Bad (Ser112) Antibody (Cell Signaling 9291) diluted 666-fold, and Streptavidin donor beads (PerkinElmer 6760002) along with Protein-A acceptor beads (PerkinElmer 6760137) at […]. Supplementation of the STOP buffer with beads and stopping the reactions were done under reduced light. Prior to the stopping reactions STOP buffer with beads was preincubated for 1 h in the dark at room temperature. After stopping the reactions, plates were incubated for 1 h in the dark at room temperature before reading on a PHERAstar FS plate reader (BMG Labtech) under reduced light.

For a further test, the target named is Pim-2 (Homo sapiens (Human), UniProt Q9P1W9). As to the kind of experiment: Pim-2 kinase assay. To be noted: 1 mM ATP; read-out: PIM2 IC50. On the procedure:
Pim-2 kinase assay—20 μL reactions were run in white 384 well polystyrene plates dotted with 0.8 μL compound/DMSO in the assay buffer (50 mM Tris, pH 7.5, 0.01% Tween-20, 5 mM mgCl2, 0.01% BSA, 5 mM DTT), containing 0.05 μM Fluorescein-labeled CREBtide peptide substrate (Invitrogen PV3508), 1 mM ATP, and 1 nM enzyme (Invitrogen PV3649) for 2 h at 25° C. Reactions were stopped by addition of 10 μL TR-FRET Dilution Buffer (Invitrogen PV3574) with 30 mM EDTA and 1.5 nM LanthaScreen Tb-CREB pSer133 antibody (Invitrogen PV3566). After 30 min. incubation at room temperature, plates were read on a PHERAstar FS plate reader (BMG Labtech).

A further test addresses Pim-1 (Homo sapiens (Human), UniProt P11309). Put plainly: Pim-1 kinase assay. As to conditions: 1 mM ATP; read-out: PIM1 IC50. On the procedure: as §1

Sequence of Pim-2 (Q9P1W9 whole entry): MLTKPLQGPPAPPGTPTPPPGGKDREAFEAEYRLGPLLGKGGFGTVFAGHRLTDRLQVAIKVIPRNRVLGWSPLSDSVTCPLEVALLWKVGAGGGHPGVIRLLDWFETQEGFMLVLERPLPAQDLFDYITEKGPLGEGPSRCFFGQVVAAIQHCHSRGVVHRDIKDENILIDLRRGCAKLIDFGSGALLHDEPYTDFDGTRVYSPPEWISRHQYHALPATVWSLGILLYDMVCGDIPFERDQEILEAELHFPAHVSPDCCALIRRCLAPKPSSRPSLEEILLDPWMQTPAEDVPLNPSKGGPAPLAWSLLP
Sequence of Pim-1 (P11309 whole entry): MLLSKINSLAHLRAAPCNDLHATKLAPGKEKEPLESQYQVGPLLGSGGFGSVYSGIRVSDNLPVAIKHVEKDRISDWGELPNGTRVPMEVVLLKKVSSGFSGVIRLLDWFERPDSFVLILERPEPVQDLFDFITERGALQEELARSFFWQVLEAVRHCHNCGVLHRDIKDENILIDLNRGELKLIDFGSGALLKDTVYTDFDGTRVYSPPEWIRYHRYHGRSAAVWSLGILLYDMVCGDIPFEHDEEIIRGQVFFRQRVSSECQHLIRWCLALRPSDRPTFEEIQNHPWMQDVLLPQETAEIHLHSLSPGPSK

As usually defined, the IC50 is the concentration that gives 50% inhibition. `C[C@@H]1C[C@H](N)C[C@H](c2ccncc2NC(=O)c2ccc(F)c3cc(N4CC5(CC(O)C5)C4)cnc23)C1` [Example 103, N-(4-((1R,3S,5S)-3-Amino-5-methylcyclohexyl)pyridin-3-yl)-5-fluoro-3-(6-hydroxy-2-azaspiro[3.3]heptan-2-yl)quinoline-8-carboxamide]: the IC50 on Pim-3 was ≤ 10 nM; on Pim-2, ≤ 100 nM; on Pim-1, ≤ 10 nM.
In the case of `C[C@@H]1C[C@H](N)C[C@H](c2ccncc2NC(=O)c2ccc(F)c3cc(N4C[C@H]5C[C@@H]4CN5S(C)(=O)=O)cnc23)C1` [Example 87, N-(4-((1R,3S,5S)-3-Amino-5-methylcyclohexyl)pyridin-3-yl)-5-fluoro-3-((1R,4R)-5-(methylsulfonyl)-2,5-diazabicyclo[2.2.1]heptan-2-yl)quinoline-8-carboxamide], the IC50 on Pim-3 was ≤ 10 nM; on Pim-2, 100 to 1000 nM; at Pim-1, ≤ 10 nM.
Take `C[C@@H]1C[C@H](N)C[C@H](c2ccncc2NC(=O)c2cccc3cc(N4CCCCC4C(F)F)cnc23)C1` (stereo partly drawn) [Example 71, N-(4-((1R,3S,5S)-3-Amino-5-methylcyclohexyl)pyridin-3-yl)-3-(2-(difluoromethyl)piperidin-1-yl)quinoline-8-carboxamide]: the IC50 is ≤ 10 nM at Pim-3, 100 to 1000 nM on Pim-2 and ≤ 10 nM at Pim-1.
`C[C@@H]1C[C@H](N)C[C@H](c2ccncc2NC(=O)c2ccc(F)c3cc(Nc4ccccc4F)cnc23)C1` [Example 125, N-(4-((1R,3S,5S)-3-Amino-5-methylcyclohexyl)pyridin-3-yl)-5-fluoro-3-(2-fluorophenylamino)quinoline-8-carboxamide]: the IC50 is ≤ 10 nM at Pim-3, ≤ 100 nM on Pim-2 and ≤ 10 nM on Pim-1.
Turning to `COC1(C)CN(c2cnc3c(C(=O)Nc4cnccc4[C@@H]4C[C@H](C)C[C@H](N)C4)ccc(F)c3c2)C1` [Example 118, N-(4-((1R,3S,5S)-3-Amino-5-methylcyclohexyl)pyridin-3-yl)-5-fluoro-3-(3-methoxy-3-methylazetidin-1-yl)quinoline-8-carboxamide], the IC50 was ≤ 10 nM at Pim-3, ≤ 100 nM at Pim-2 and ≤ 10 nM on Pim-1.
For the compound `C[C@@H]1C[C@H](N)C[C@H](c2ccncc2NC(=O)c2ccc(F)c3cc(N4CCCS4(=O)=O)cnc23)C1` [Example 138, N-(4-((1R,3S,5S)-3-Amino-5-methylcyclohexyl)pyridin-3-yl)-3-(1,1-dioxidoisothiazolidin-2-yl)-5-fluoroquinoline-8-carboxamide], the IC50 is ≤ 10 nM on Pim-3, 100 to 1000 nM on Pim-2 and ≤ 10 nM at Pim-1.
As for `C[C@@H]1C[C@H](N)C[C@H](c2ccncc2NC(=O)c2ccc(F)c3cc(N4CCCN(C)C(=O)C4)cnc23)C1` [Example 135, N-(4-((1R,3S,5S)-3-Amino-5-methylcyclohexyl)pyridin-3-yl)-5-fluoro-3-(4-methyl-3-oxo-1,4-diazepan-1-yl)quinoline-8-carboxamide], the IC50 at Pim-3 was ≤ 10 nM; on Pim-2, 100 to 1000 nM; at Pim-1 it was ≤ 10 nM.
On to `C[C@@H]1C[C@H](N)C[C@H](c2ccncc2NC(=O)c2ccc(F)c3cc(N[C@@H](C)C4CC4)cnc23)C1` [Example 52, N-(4-((1R,3S,5S)-3-Amino-5-methylcyclohexyl)pyridin-3-yl)-3-((S)-1-cyclopropylethylamino)-5-fluoroquinoline-8-carboxamide], for which the results for the IC50 on Pim-3, at Pim-2 and on Pim-1 were 10 to 50 nM, 1000 to 10000 nM and ≤ 10 nM, respectively.
The matching figures for `COC1CCN(c2cnc3c(C(=O)Nc4cnccc4[C@@H]4C[C@H](C)C[C@H](N)C4)ccc(F)c3c2)CC1` [Example 131, N-(4-((1R,3S,5S)-3-Amino-5-methylcyclohexyl)pyridin-3-yl)-5-fluoro-3-(4-methoxypiperidin-1-yl)quinoline-8-carboxamide]: ≤ 10 nM, 100 to 1000 nM and ≤ 10 nM.
Take `CC1CCC(C)N1c1cnc2c(C(=O)Nc3cnccc3[C@@H]3C[C@H](C)C[C@H](N)C3)ccc(F)c2c1` (stereo partly drawn) [Example 36, N-(4-((1R,3S,5S)-3-Amino-5-methylcyclohexyl)pyridin-3-yl)-3-(2,5-dimethylpyrrolidin-1-yl)-5-fluoroquinoline-8-carboxamide]: the IC50 on Pim-3 was 10 to 50 nM; on Pim-2 it was 100 to 1000 nM; at Pim-1, ≤ 10 nM.
Consider `COC[C@@H]1CCCN1c1cnc2c(C(=O)Nc3cnccc3[C@@H]3C[C@H](C)C[C@H](N)C3)ccc(F)c2c1` [Example 48, N-(4-((1R,3S,5S)-3-Amino-5-methylcyclohexyl)pyridin-3-yl)-5-fluoro-3-((S)-2-(methoxymethyl)pyrrolidin-1-yl)quinoline-8-carboxamide], for which the 50% inhibitory concentration (IC50) is ≤ 10 nM at Pim-3, 100 to 1000 nM on Pim-2 and ≤ 10 nM on Pim-1.
For `CC1CN(c2cnc3c(C(=O)Nc4cnccc4[C@@H]4C[C@H](C)C[C@H](N)C4)ccc(F)c3c2)CC(C)O1` (stereo partly drawn) [Example 37, N-(4-((1R,3S,5S)-3-Amino-5-methylcyclohexyl)pyridin-3-yl)-3-(2,6-dimethylmorpholino)-5-fluoroquinoline-8-carboxamide], the IC50 at Pim-3 is 10 to 50 nM; on Pim-2, 1000 to 10000 nM; at Pim-1, ≤ 10 nM.
With `C[C@@H]1C[C@H](N)C[C@H](c2ccncc2NC(=O)c2ccc(F)c3cc(C4CC4)cnc23)C1` [Example 13, N-{4-[(1R,3S,5S)-3-Amino-5-methylcyclohexyl]pyridin-3-yl}-3-cyclopropyl-5-fluoroquinoline-8-carboxamide], the IC50 at Pim-3 was ≤ 10 nM; at Pim-2, ≤ 100 nM; on Pim-1, ≤ 10 nM.
In the case of `CC1CCCCN1c1cnc2c(C(=O)Nc3cnccc3[C@@H]3C[C@H](C)C[C@H](N)C3)cccc2c1` (stereo partly drawn) [Example 70, N-(4-((1R,3S,5S)-3-Amino-5-methylcyclohexyl)pyridin-3-yl)-3-(2-methylpiperidin-1-yl)quinoline-8-carboxamide], the half-inhibitory concentration (IC50) on Pim-3 is ≤ 10 nM; at Pim-2, 100 to 1000 nM; at Pim-1, ≤ 10 nM.
`C[C@@H]1C[C@H](N)C[C@H](c2ccncc2NC(=O)c2ccc(F)c3cc(N4CCN(C)CC4)cnc23)C1` [Example 30, N-{4-[(1R,3S,5S)-3-Amino-5-methylcyclohexyl]pyridin-3-yl}-5-fluoro-3-(4-methylpiperazin-1-yl)quinoline-8-carboxamide]: the IC50 was ≤ 10 nM at Pim-3, 100 to 1000 nM on Pim-2 and ≤ 10 nM on Pim-1.
As to `CCN(C)c1cnc2c(C(=O)Nc3cnccc3[C@@H]3C[C@H](C)C[C@H](N)C3)ccc(F)c2c1` [Example 20, N-(4-((1R,3S,5S)-3-Amino-5-methylcyclohexyl)pyridin-3-yl)-3-(ethyl(methyl)amino)-5-fluoroquinoline-8-carboxamide], the IC50 on Pim-3 is ≤ 10 nM; at Pim-2, ≤ 100 nM; at Pim-1 it was ≤ 10 nM.
As to `C[C@@H]1C[C@H](N)C[C@H](c2ccncc2NC(=O)c2ccc(F)c3cc(N4CCO[C@@H](C)C4)cnc23)C1` [Example 38, N-(4-((1R,3S,5S)-3-Amino-5-methylcyclohexyl)pyridin-3-yl)-5-fluoro-3-((S)-2-methylmorpholino)quinoline-8-carboxamide], the IC50 on Pim-3 was 10 to 50 nM; on Pim-2, 100 to 1000 nM; on Pim-1, ≤ 10 nM.

These data come from patent publication US9920032B2, “Heterocyclic compounds useful as pim kinase inhibitors” (Incyte Corporation, priority 2015, dated 2018).
